Measured values as given in patent US10011552B2, “Process for preparation of herbicidal carboxylic acid salts” (ROTAM AGROCHEM INTERNATIONAL COMPANY LIMITED, priority 2013, dated 2018).

Experiment: pH value of the dried carboxylic acid salt in water
Assay type: physicochemical
Details: dried salt cake dissolved in water

| Structure (SMILES) | pH value in water |
| --- | --- |
| Cc1cc(Cl)ccc1OCC(=O)[O-].[K+] [MCPA-potassium] | 9 |
| O=C(O)c1nc(Cl)ccc1Cl.OCCNCCO [clopyralid-bis(2-hydroxyethyl)ammonium] | 8 |
| COc1c(Cl)ccc(Cl)c1C(=O)[O-].[Na+] [dicamba-sodium] | 7 |
| O=C([O-])c1c(Cl)ccc2cc(Cl)cnc12.[Na+] [quinclorac-sodium] | 10 |
